Laboratory results as given in EP4786466A1, “QUINAZOLINE DERIVATIVE, SALT THEREOF, AND PHARMACEUTICAL COMPOSITION COMPRISING SAME AS ACTIVE INGREDIENT” (Korea Research Institute of Chemical Technology, priority 2023, dated 2025).
Like-named read-outs stand apart in the source and are kept apart here.

Assays:
[1] = in vitro; details: human, mcf10a cells
Description: (§1) MCF7 breast cancer cell lines and MCF10A normal breast cancer cell lines were treated with serial dilutions of the compounds of the present invention ranging from 1 µM to 15.63 nM for 72 hours. Cell viability was measured by the WST-8 assay (Cyto XTM cell viability assay kit; LPS solution, Daejeon, Korea) according to the manufacturer's instructions.

[2] = system: MCF10A normal breast cell lines; assay: Cell viability analysis, WST-8 assay, MCF10A; details: Homo sapiens, MCF-10A, 72 h
Description: as §1

[3] = system: pENSA; assay: pENSA level by immunofluorescence (described method: in vitro kinase analysis with GST-tag-MASTL and His-tag-ENSA); assay type: cell-based; details: for pENSA (%) Immunofluor ecense (1 µM): compound 1 µM
Procedure, shortened: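 In vitro kinase reaction using recombinant GST-tagged MASTL with His-tagged ENSA as substrate; phosphorylated ENSA (pENSA) serves as read-out of MASTL activity. Cell lines named: MCF7 breast cancer and MCF10A.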

[4] = molecular target: T1, Recombinant GST-TAG-MASTL (Homo sapiens, UniProt Q96GX5); assay: HTRF-based kinase assay (HTRF KinEASE assay kit); assay type: biochemical; details: for activity at 1 µM: read-out: MASTL activity (%) HTRF (1 µM); for activity at 10 µM: footnote b: concentration 10 µM; for activity at 10 µM / activity at 1.25 µM: read-out: MASTL activity (%) HTRF; for activity at 1.25 µM: footnote a: concentration 1.25 µM
T1 construct: GST; purchased Thermo Fisher Scientific
T1 sequence (Q96GX5 1-879): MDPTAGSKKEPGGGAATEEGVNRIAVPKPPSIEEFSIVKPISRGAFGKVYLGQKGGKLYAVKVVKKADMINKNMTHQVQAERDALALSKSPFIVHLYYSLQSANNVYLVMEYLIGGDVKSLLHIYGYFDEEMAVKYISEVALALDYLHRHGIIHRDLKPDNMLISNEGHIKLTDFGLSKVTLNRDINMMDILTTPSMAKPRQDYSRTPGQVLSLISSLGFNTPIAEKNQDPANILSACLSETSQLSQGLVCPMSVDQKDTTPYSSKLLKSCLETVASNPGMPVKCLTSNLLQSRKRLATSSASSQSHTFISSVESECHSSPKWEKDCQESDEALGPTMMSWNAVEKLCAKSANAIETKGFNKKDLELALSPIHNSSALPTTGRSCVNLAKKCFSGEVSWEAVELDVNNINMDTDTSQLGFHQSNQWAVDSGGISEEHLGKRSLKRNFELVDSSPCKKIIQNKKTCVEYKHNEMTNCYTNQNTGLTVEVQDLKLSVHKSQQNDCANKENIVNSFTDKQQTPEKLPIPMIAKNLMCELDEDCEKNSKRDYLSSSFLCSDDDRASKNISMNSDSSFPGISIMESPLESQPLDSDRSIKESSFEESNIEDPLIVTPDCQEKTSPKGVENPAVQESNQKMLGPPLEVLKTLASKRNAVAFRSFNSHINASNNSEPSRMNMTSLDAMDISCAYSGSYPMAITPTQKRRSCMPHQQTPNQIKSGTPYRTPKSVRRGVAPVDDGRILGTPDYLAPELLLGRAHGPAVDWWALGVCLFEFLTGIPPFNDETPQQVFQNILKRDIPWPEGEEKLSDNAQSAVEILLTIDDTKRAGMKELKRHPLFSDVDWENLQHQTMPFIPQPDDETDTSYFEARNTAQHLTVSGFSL
From the text: Recombinant GST-TAG-MASTL (Thermo Fisher Scientific, MA, USA) was used for HTRF-based kinase assays. The HTRF KinEASE assay kit (CisBio, MA, USA) was used according to the manufacturer's instructions.

[5] = system: MCF7 breast cancer cell lines; assay: Cell viability analysis, WST-8 assay, MCF7; details: Homo sapiens, MCF7, 72 h; for viability at 1 µM: read-out: Cell viability (%) WST-8, MCF7 (1 µM), compound 1 µM, 72 hours; for viability at 1.25 µM: read-out: Cell viability (%) WST-8, MCF7, footnote a: concentration 1.25 µM, 72 hours
Description: as §1

[6] = read-out: IC50(nM) Cell viability (MCF10A)
[7] = HTRF, read-out: IC50(nM) MASTL activity
[8] = read-out: IC50(nM) Cell viability (MCF7)
[9] = HTRF, unit µM, read-out: IC50 MASTL activity
[10] = read-out: IC50 Cell viability (MCF7)
[11] = read-out: IC50 Cell viability (MCF10A)

SMILES	viability at 1 µM [1]	IC50 [2, 6]	pENSA (%) Immunofluor ecense (1 µM) [3]	IC50 ([3]; read-out: IC50(nM) pENSA)	IC50 [4, 7]	activity at 1 µM ([4]; compound 1 µM)	viability at 1 µM [5]	IC50 [5, 8]	IC50 [4, 9]	IC50 [5, 10]	viability at 1.25 µM [1]	IC50 [2, 11]	activity at 10 µM [4]	viability at 1.25 µM [5]	IC50 ([3]; unit µM, read-out: IC50 pENSA)	activity at 1.25 µM [4]	IC50 [4]	activity at 1 µM [4]
NC(=O)c1ccc(Nc2nc(Nc3cc(C4CC4)[nH]n3)c3ccccc3n2)cc1 [compound 4t, 4-((4-((5-cyclopropyl-1G-pyrazol-3-yl)amino)quinazolin-2-yl)amino)benzamide]	18.4%	226 nM	0.9%	341 nM	198 nM	14.9%	2.7%	324 nM										
NC(=O)Cc1ccc(Nc2nc(Nc3cc(C4CC4)[nH]n3)c3ccccc3n2)cc1 [compound 4u, 2-(4-((4-((5-cyclopropyl-1G-pyrazol-3-yl)amino)quinazolin-2-yl)amino)phenyl)acetamide]	25.5%	718 nM	41.2%		392 nM	30.5%	64.8%											
Nc1ccc(Nc2nc(Nc3cc(C4CC4)[nH]n3)c3ccccc3n2)cc1 [compound 4v, M^2-(4-aminophenyl)-M^4-(5-cyclopropyl-1G-pyrazol-3-yl)quinazoline-2,4-diamine]	34.1%	438 nM	15.3%			41.4%	32.8%	390 nM	1500 nM									
CC(C)(C)OC(=O)NCCNC(=O)c1ccc(Nc2nc(Nc3cc(C4CC4)[nH]n3)c3ccccc3n2)cc1 [compound 4w, sdqs-butyl (2-(4-((4-((5-cyclopropyl-1G-pyrazol-3-yl)amino)quinazolin-2-yl)amino)benzamido)ethyl)carbamate]	63.4%	908 nM	135%			48.5%	72%		1300 nM	1800 nM								
c1ccc2c(Nc3cc(C4CC4)[nH]n3)nc(N3CCC4(CC3)OCCO4)nc2c1 [compound 6a, M-(5-cyclopropyl-1G-pyrazol-3-yl)-2-(1,4-dioxa-8-azaspiro[4.5]decan-8-yl)quinazolin-4-amine]	20.9%	392 nM	10.1%	532 nM	340 nM	15.2%	13.2%	499 nM										
Cc1ccc(C2=CCN(c3nc(Nc4cc(C5CC5)[nH]n4)c4ccccc4n3)CC2)c(C)c1 [compound 6j, M-(5-cyclopropyl-1G-pyrazol-3-yl)-2-(4-(2,4-dimethylphenyl)-3,6-dihydropyridin-1(2G)-yl)quinazolin-4-amine]	33.1%	566 nM	97.4%			80%	45.6%	674 nM										
Cc1cc(Cl)ccc1C1=CCN(c2nc(Nc3cc(C4CC4)[nH]n3)c3ccccc3n2)CC1 [compound 6l, 2-(4-(4-chloro-2-methylphenyl)-3,6-dihydropyridin-1(2G)-yl)-M-(5-cyclopropyl-1G-pyrazol-3-yl)quinazolin-4-amine]	15.2%	332 nM	101%			76.1%	47.8%	484 nM										
CC(C)C(=O)N1CC=C(c2nc(Nc3cc(C4CC4)[nH]n3)c3ccccc3n2)CC1 [compound 9b, 1-(4-(4-((5-cyclopropyl-1G-pyrazol-3-yl)amino)quinazolin-2-yl)-3,6-dihydropyridin-1(2G)-yl)-2-methylpropan-1-one]	12.3%	316 nM	34.6%	832 nM	136 nM	21.7%	52.5%			1000 nM								
c1ccc2c(Nc3cc(C4CC4)[nH]n3)nc(N3CCNCC3)nc2c1 [compound 11, M-(5-cyclopropyl-1G-pyrazol-3-yl)-2-(piperazin-1-yl)quinazolin-4-amine]			66.4%						1000 nM	3200 nM	98%	4100 nM	18.1%	104%				
CN1CCN(c2nc(Nc3cc(C4CC4)[nH]n3)c3ccccc3n2)CC1 [compound 12a, M-(5-cyclopropyl-1G-pyrazol-3-yl)-2-(4-methylpiperazin-1-yl)quinazolin-4-amine]			63.8%					697 nM			82.3%	2400 nM	26.3%	26.2%	1100 nM			
OCCN1CCN(c2nc(Nc3cc(C4CC4)[nH]n3)c3ccccc3n2)CC1 [compound 12b, 2-(4-(4-((5-cyclopropyl-1G-pyrazol-3-yl)amino)quinazolin-2-yl)piperazin-1-yl)ethan-1-ol]		2600 nM	41.7%	852 nM	807 nM					1500 nM	123%		17.7%	69.4%				
CCNC(=O)N1CCN(c2nc(Nc3cc(C4CC4)[nH]n3)c3ccccc3n2)CC1 [compound 12c, 4-(4-((5-cyclopropyl-1G-pyrazol-3-yl)amino)quinazolin-2-yl)-M-ethylpiperazine-1-carboxamide]			75.8%								61.3%	1400 nM	45.7%	107%				
O=C(Nc1ccc(F)cc1)N1CCN(c2nc(Nc3cc(C4CC4)[nH]n3)c3ccccc3n2)CC1 [compound 12d, 4-(4-((5-cyclopropyl-1G-pyrazol-3-yl)amino)quinazolin-2-yl)-M-(4-fluorophenyl)piperazine-1-carboxamide]			46.3%	571 nM	832 nM					1500 nM	63.7%	1500 nM	14.1%	55.8%				
CC(C)(C)OC(=O)N1CC2CC1CN2c1nc(Nc2cc(C3CC3)[nH]n2)c2ccccc2n1 (stereo not shown) [compound 13, sdqs-butyl 5-(4-((5-cyclopropyl-1G-pyrazol-3-yl)amino)quinazolin-2-yl)-2,5-diazabicyclo[2.2.1]heptane-2-carboxylate]		316 nM	90%					932 nM	1000 nM		15.9%			62%		53.8%		
c1ccc2c(Nc3cc(C4CC4)[nH]n3)nc(N3CC4CC3CN4)nc2c1 (stereo not shown) [compound 14, 2-(2,5-diazabicyclo[2.2.1]heptan-2-yl)-M-(5-cyclopropyl-1G-pyrazol-3-yl)quinazolin-4-amine Trifluoroacetic acid]	63.4%		9.2%	645 nM			21.8%	647 nM				1700 nM					593 nM	25.5%
CCNC(=O)N1CC2CC1CN2c1nc(Nc2cc(C3CC3)[nH]n2)c2ccccc2n1 (stereo not shown) [compound 15a, 5-(4-((5-cyclopropyl-1G-pyrazol-3-yl)amino)quinazolin-2-yl)-M-ethyl-2,5-diazabicyclo[2.2.1]heptane-2-carboxamide]		820 nM	86.1%						1100 nM		37%			61%		61.1%		
